Source: PMC9014415, “Repositioning of a Diaminothiazole Series Confirmed to Target the Cyclin-Dependent Kinase CRK12 for Use in the Treatment of African Animal Trypanosomiasis” (Journal of Medicinal Chemistry, 2022)
Marks after values point to notes of the source that are not given here.

What was measured:
[1] = test system: T. vivax; assay: Cattle efficacy for compound 2, intramuscular (CIRDES), T. vivax; format: in vivo, Trypanosoma vivax
Procedure: Compound 2 was progressed into IM efficacy studies dosing at 10 mg/kg either once or twice, 15 h apart, in cattle infected with T. congolense or T. vivax. […]
3.5 Cattle efficacy for compound 2, intramuscular (CIRDES)
Felani-zebu cattle were housed in a fly-proof facility, acclimatised for 15 d prior to the study, cattle were treated with an anthelmintic, an ectoparasiticide and an antibiotic. Donor animals were infected with stabilates (frozen stocks) of either T. congolense KOT256 (resistant to 7 mg/kg diminazene in cattle) or T. vivax Gando Bongaly (resistant to diminazene 7 mg/kg and to isometamidium 1 mg/kg […]
in cattle). Blood from the donor animals, diluted with phosphate buffered glucose was used to infect recipient animals IV via the jugular vein. Infection was with approximately 100,000 fresh viable parasites. The compounds were given IM. Each injection was up to 10 mL and given in neck in the following order: left anterior third, right anterior third, left posterior third and right posterior third.
Animals over 240 kg required a fifth injection site for the IVP, and this was given in the left or right hind leg. Cattle were randomised to treatments. Parasitaemia was monitored 3 times per calendar week, though collection of blood and assessment of clinical symptoms. Blood samples were also […]
treatment). […]

[2] = Injection site tolerance in the IM efficacy study in African cattle; format: in vivo; conditions: free base in Kolliphor EL, NMP, 2-pyrrolidone, 11% water
Procedure: Compound 2 was only partially curative for cattle infected with T. congolense following two doses (1/4 and 2/4 in different treatment arms), administered 15 h apart (Table 4, Table S8, and Figure S9a). The curative regimen aligned well with PK/PD data from mice. However, cattle infected with T. vivax and dosed IM were not cured despite the fact that PK data from some T. vivax-infected cattle (Table 4, Table S9, and Figure S9b) predicted that a dosing at this level should have been curative based on mouse data. This lack of efficacy at exposures expected to deliver a cure is even more perplexing when the metabolism of compound 2 is considered. […] The rate and extent of this metabolism is higher in T. vivax-infected animals compared to those infected with T. congolense (Table S10) for reasons that are not clear.

[3] = test system: T. b. brucei; assay: In vitro drug sensitivity assay, bloodstream-form T. b. brucei; format: cell-based; conditions: Trypanosoma brucei, n = 12
Procedure: 1.1 In vitro drug sensitivity assays - Trypanosoma brucei brucei
Drug sensitivity assays were carried out with bloodstream-form (BSF) T. b. brucei ‘single marker’ S427 cells grown at 37°C with 5% CO2 in HMI-9T medium,1 as previously described.2 1.2 In vitro drug sensitivity assays - Trypanosoma congolense
EC50 values for test compounds against T. congolense (IL3000 strain) were conducted as previously described3 with minor modifications.4 Briefly, trypanosome cell densities were determined using a CASY cell counter (Schärfe) and diluted to a seeding density of 2 x 105 trypanosomes/mL. […] Absorbance was read using a SpectraMax (Gemini XS) fluorescence reader at an excitation wavelength of 536 nm and an emission wavelength of 588 nm. EC50 values were determined using SOFTmax Pro 5.2 analysis software. […]
Since T. vivax cannot be cultured axenically, BSF trypanosomes were harvested from an infected mouse with high parasitemia via cardiac puncture and used directly in ex vivo assays. EC50 values were determined against T, vivax (STIB 719/ ILRAD 560) as previously described3, with minor modifications. Briefly, cell densities were determined using a Neubauer chamber and then diluted to a seeding density of 4 x 105 trypanosomes / mL. […] Absorbance was read using a SpectraMax (Gemini XS) fluorescence reader at an excitation wavelength of 536 nm and an emission wavelength of 588 nm. […]

[4] = test system: T. congolense KONT 2/133; assay: Cattle efficacy for compound 1, SC (Clinvet); format: in vivo, Trypanosoma congolense; conditions: for Animals negative for parasites / Animals positive for parasites: 5 mg/kg SC twice 12 h apart
From the text: However, following the cessation of treatment, parasitaemia quickly re-emerged to such an extent that after 4 days, all calves were positive. It should be noted that in this study, calves were infected with a highly virulent T. congolense isolate known to be resistant to established anti-trypanosomal agents diminazene and isometamidium. Testing compounds in this model represents a rigorous test of efficacy; thus, the observed reduction in parasite numbers in calves dosed with compound 1 was very encouraging. […]
3.3 Cattle efficacy for compound 1 (Clinvet)
In each of the cattle efficacy studies (3.3, 3.4 and 3.5), efficacy was assessed primarily on absence of recrudescence of parasitaemia for 100 days after treatment administration together with improvements in Packed Cell Volume, body weight and clinical signs of infected compared with uninfected animals. Assessment of parasitaemia was based on phase contrast buffy coat examinations and confirmation by PCR at 100 d.
Friesian-Holstein calves, weaned for at least 2 months and with a minimum age of 4 months, housed in a fly-proof building, were infected with Trypanosoma conglense (savannah) KONT 2/133, at a dose of 110,000 parasites (study day 0) via IV infusion. The parasites were obtained from a donor calf. This isolate is resistant to diminazene (20 mg/kg) and isometamidium (1 mg/kg) in cattle, and diminazene (7 mg/kg) and isometamidium (>1 mg/kg) in mice. Calves were parasitaemic by study day 6. Calves (n = 5) were treated with compound 1 (5 mg/kg, SC, twice 12 h apart) on study […]
day at 25 mg/ml in NMP/ 2-pyrrolidinone/ PEG400 water 10/40/30/20. Control groups were comprised of un-infected calves, infected but un-treated calves (n = 6) and calves treated with diminazene (n = 3) or isometamidium (n = 3). The calves were randomised to treatments. Calves were monitored daily for parasitaemia and packed cell volume (PCV) via blood sampling and through […]
One day after treatment, 80% of the animals in the treatment group were negative for parasites.
After 3 d, 100% of the animals in the treatment groups were negative for parasites. After 5 d, 40% of the animals were positive for parasites. […]

[5] = 5 mg/kg SC given twice at 12 h intervals

## CC(C)CS(=O)(=O)N[C@H]1CC[C@H](Nc2nc(N)c(C(=O)c3c(F)cc(CN(C)C)cc3F)s2)CC1 [Compound 2, N-(trans)-[4-[[4-Amino-5-[4-(dimethylaminomethyl)-2,6-difluoro-benzoyl]thiazol-2-yl]amino]cyclohexyl]-2-methyl-propane-1-sulfonamide]
[1]; T5, 10 mg/kg IM once
  efficacy: 0/5 ^a
[1]; T5 dosed once IM, animals 1907, 1918, 1932, 1933, 1940
  Efficacy, individual animals: No
[1]; T6, 10 mg/kg IM twice, 15 h apart
  efficacy: 0/3 ^a
[1]; T6 dosed twice IM, animals 1902, 1926, 1929
  Efficacy, individual animals: No
[1]; T9, saline twice, followed by compound 2 rescue dose twice IM 4 days later
  efficacy: 0/2 ^a
[1]; T9 after 2 (rescue IM), animals 1931, 1934
  Efficacy, individual animals: No and no
[1]; T. vivax-infected cattle, 10 mg/kg IM once or twice, 10 mg/kg
  Cattle cured: none and not cured
[2]
  Injection site tolerance: injection site tolerance issues

## CC(C)CS(=O)(=O)N[C@H]1CC[C@H](Nc2nc(N)c(C(=O)c3c(F)cccc3F)s2)CC1 [Compound 1, N-((trans)-4-((4-Amino-5-(2,6-difluorobenzoyl)thiazol-2-yl)amino)cyclohexyl)-2-methylpropane-1-sulfonamide]
[3]
  EC50: 1.3 nM
[4]; [5]
  Parasitaemia in calves: suppressed below the level of detection
  Time after cessation of treatment until all calves were positive: 4 days
[4]; after 3 d
  Animals negative for parasites: 100%
[4]; after 5 d
  Animals positive for parasites: 40%
[4]; after 6 d
  Animals positive for parasites: 80%
[4]; after 8 days
  Animals positive for parasites: 100%
[4]; one day after treatment
  Animals negative for parasites: 80%
